Data set [1] concerns normal human skin fibroblasts. As to the kind of experiment: collagen gel contraction promoting effect. Type of data set: cell-based. The conditions noted are these: one week, negative control = 1. The protocol:
A collagen solution (collagen was used trade name I-AC manufactured by KOUKEN Co., Ltd.) dissolved in normal human skin fibroblasts (manufactured by KURABO INDUSTRIES LTD., 1×10^5 cells/ml) was prepared on ice according to the explanation insert attached to the product, and the collagen was gelled in 6 wells at 37° C. Thereafter, 0.25% FBS/DMEM medium containing a sample ([…]) was added. The gel was detached from the dish wall, and the level of contraction of the gelled collagen was examined. As a positive control, DMEM medium containing 10% FBS instead of 0.25% FBS was used. The medium was changed every 2 days and, one week later, the medium was removed by suction. The diameter of the collagen gel was measured, the area was calculated, and the area ratio was compared to that of the negative control as 1.

The test system of data set [2] is normal skin fibroblasts derived from human. As to the kind of experiment: fibroblast activating action evaluation test by the MTT reduction method. It is filed as cell-based. The conditions noted are these: 48 hr culture, control = 100. How it is done:
The present inventors performed a fibroblast activating action evaluation test by the MTT reduction method and using normal skin fibroblasts derived from human (see TIM Mosmann; Journal of Immunological Methods p 55-63, 1983).
Using DMEM (Gibco) containing 5% FBS (fetal bovine serum; purchased from NICHIREI CORPORATION), normal skin fibroblasts derived from human (manufactured by KURABO INDUSTRIES LTD.) were plated on a 96 well plate at a density of 2×10^4 cells/well, and cultured at 37° C., 5% CO2 for 24 hr. After removing the medium, the cells were washed with PBS(−) (NISSUI PHARMACEUTICAL CO., LTD.), the medium was changed to DMEM containing 1% FBS supplemented with each concentration of conagenin, and the cells were cultured at 37° C., 5% CO2. The blank was […] containing 1% FBS, which was free of test specimen. After culture for 48 hr, the absorbance at 550 nm was measured by MTT reduction method, based on which the MTT reduction amount was determined. The cell activation rate was shown in a percentage relative to the absorbance of additive-free cultured cell (control) as 100.

The test system of the next data set is B16 melanoma cells. As to the kind of experiment: melanin formation suppression test, visual whitening and cell mass volume. It is filed as cell-based, mouse. Details: key to level of whitening: whitening high→++; whitening moderate→+; somewhat whitened→+−; no whitening→−. The conditions noted are these: 5 days; for level of whitening: visual evaluation; for change in cell mass volume: visual, cytotoxicity index. The protocol:
A melanin formation suppression test was performed as follows using mouse melanoma cells. First, 2×10^4 B16 melanoma cells were plated in a 35 mm diameter dish containing Eagle's minimum nutrition medium (3 ml) supplemented with 10% (v/v) fetal bovine serum, and cultured in a carbon dioxide incubator adjusted to 5% (v/v) carbon dioxide gas at 37° C. for about 24 hr. Then, pure water or a sample dissolved in pure water was added thereto to a final concentration of 0.1 mM, 1.0 mM or 10 mM. As a positive control, kojic acid (manufactured by Sigma Ltd.) was added to the same concentration. The cells were cultured for 5 more days under the same conditions, treated with trypsin, and centrifuged to collect the cells in a 1.5 ml Eppendorf. The level of whitening of the cells was visually evaluated, and indicated: whitening high→++; whitening moderate→+; somewhat whitened→+−; no whitening→−. Simultaneously, changes in the cell mass volume was visually evaluated and used as a cytotoxicity index.

In another data set the test system is human skin fibroblasts. As to the kind of experiment: type I collagen gel contractability after glucose modification (glycated collagen). The conditions noted are these: one week, negative control = 1. It is filed as cell-based. How it is done: A collagen solution (collagen was used trade name I-AC, manufactured by KOUKEN Co., Ltd.) was prepared on ice according to the explanation insert attached to the product, and the collagen was gelled in 12 wells at 37° C. A glucose-6-phosphate solution was added to the final concentration of 100 mM, and the mixture was incubated at 37° C. for 7 days to allow glycation reaction. Unreacted glucose-6-phosphate was removed, 1×10^5 cells/ml of fibroblast was sown on the collagen gel, and cultured for 5 hr using a 0.25% FBS/DMEM medium. The medium was removed, and […] or 0.25% FBS/DMEM medium containing PBS as negative control was added. The gel was detached from the dish wall, and the level of contraction of the gelled collagen was examined. As a positive control, DMEM medium containing 10% FBS was used. The medium was changed every 2 days and, one week later, the medium was removed by suction. The diameter of the collagen gel was measured, the area was calculated, and the area ratio was compared to that of the negative control as 1.

The test system of a further data set is human normal melanocytes. As to the kind of experiment: melanin formation suppression test in human melanocytes (L-DOPA, absorbance 495 nm). Type of data set: cell-based. The conditions noted are these: 5 days, relative value, without addition of sample = 100. How it is done:
A melanin formation suppression test was performed using human melanocytes (manufactured by KURABO INDUSTRIES LTD.). That is, human normal melanocytes amplified in Medium 254 medium (human melanocyte medium added with HMGS, manufactured by KURABO INDUSTRIES LTD.) was added to a 96 well plate at 10^4 cells per well, and cultured in a carbon dioxide incubator adjusted to 5% (v/v) carbon dioxide gas at 37° C. for about 24 hr. Then, pure water or a sample (conagenin) dissolved in pure water was added thereto to a final concentration of 0.1 mM, 1.0 mM or 10 mM. As a positive control, kojic acid (manufactured by Sigma Ltd.) was added to the same concentration. The cells were cultured for 5 more days under the same conditions. To the recovered cells was added 50 μl of cell suspension (PBS buffer containing Triton X-100 at 0.1% (v/v)). After thorough suspending, the suspension was stood at 4° C. for 1 hr. Thereto was added 50 μl of 10 mM L-DOPA (manufactured by Nacalai Tesque), and the mixture was incubated at 37° C. for 1 hr. Thereafter, the absorbance at 495 nm was measured by a plate reader (multiscanplus MKII, manufactured by Japan Flow Laboratory), and the melanin formation amount was measured (shown in a relative value to the value without addition of sample as 100).

Regarding `C[C@@H]([C@@H](C)O)[C@@H](O)C(=O)N[C@@](C)(CO)C(=O)O` [conagenin, (2S)—N-[(2R,3S,4R)2,4-dihydroxy-3-methyl-pentanoyl]-2-methylserine], the “collagen gel area ratio” value in data set [1] (1 μM in 0.25% FBS/DMEM) came out at 0.47; in data set [1] (100 μM in 0.25% FBS/DMEM), 0.44; in data set [1] (5 mM in 0.25% FBS/DMEM), 0.42; with human skin fibroblasts (1 μM) it was 0.81; in the data set on human skin fibroblasts (100 μM) it was 0.64; in the data set with human skin fibroblasts (5 mM) it was 0.49. Besides, the cell activation rate in data set [2] (0.01 μM) was 105%; in data set [2] (0.05 μM), 120%; in data set [2] (0.1 μM) it was 125%; in data set [2] (1 μM), 111%; in data set [2] (10 μM) it was 113%; in data set [2] (40 μM), 124%. Moreover, the cell activation rate in data set [2] (80 μM), in data set [2] (160 μM) and in data set [2] (310 μM) was 113% in each case. Besides, the figures for the level of whitening entry in the data set with B16 melanoma cells (0.1 mM), in the data set on B16 melanoma cells (1 mM) and with B16 melanoma cells (10 mM) were “+”, “++” and “++”, respectively. Besides, the “change in cell mass volume” value in the data set on B16 melanoma cells (0.1 mM), in the data set with B16 melanoma cells (1 mM) and with B16 melanoma cells (10 mM) was “none” throughout. For the same compound, the melanin formation amount is on record as 92 in the data set with human normal melanocytes (100 μM), 66 in the data set on human normal melanocytes (1 mM) and 17 in the data set with human normal melanocytes (10 mM).
